Experimental data taken from patent publication US20080039442A1, “Compounds With Kv4 Ion Channel Activity” (Devgen NV, priority 2004, published 2008).
pIC50: −log10 of the molar value. Read-outs that look alike come from different tables or passages of the source.

Experiments:
[1] = biological target: T1, human Kv4.3/KChIP2.2 potassium channel (Homo sapiens, UniProt Q9UK17); assay: Whole cell patch clamp, CHO-K1 cells stably expressing Kv4.3/KChIP2.2; format: cell-based; settings: for remaining activity at 1 µM: CHO-K1; for pIC50: Table 12, read-out: Kv4.3 charge IC50
T1 construct: expressed in transfected cells
T1 sequence (Q9UK17 1-655): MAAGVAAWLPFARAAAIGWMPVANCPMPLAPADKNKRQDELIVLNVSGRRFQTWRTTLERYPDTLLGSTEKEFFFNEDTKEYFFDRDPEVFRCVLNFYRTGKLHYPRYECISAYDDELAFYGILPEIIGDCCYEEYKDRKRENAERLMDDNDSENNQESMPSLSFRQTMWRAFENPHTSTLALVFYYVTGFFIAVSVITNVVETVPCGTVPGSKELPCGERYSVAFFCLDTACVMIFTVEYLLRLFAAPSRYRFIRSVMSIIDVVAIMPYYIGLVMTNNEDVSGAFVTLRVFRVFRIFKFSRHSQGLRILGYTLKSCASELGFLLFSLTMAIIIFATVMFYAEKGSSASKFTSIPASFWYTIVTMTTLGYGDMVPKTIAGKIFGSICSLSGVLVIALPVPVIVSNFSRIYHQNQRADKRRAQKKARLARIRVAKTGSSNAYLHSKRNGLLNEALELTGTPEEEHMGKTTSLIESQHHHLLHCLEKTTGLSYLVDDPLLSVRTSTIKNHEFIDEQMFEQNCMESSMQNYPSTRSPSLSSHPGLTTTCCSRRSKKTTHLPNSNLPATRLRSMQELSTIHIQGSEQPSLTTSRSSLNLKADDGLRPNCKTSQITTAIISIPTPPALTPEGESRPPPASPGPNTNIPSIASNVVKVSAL
T1 sequence (Q9NS61 1-270 partner): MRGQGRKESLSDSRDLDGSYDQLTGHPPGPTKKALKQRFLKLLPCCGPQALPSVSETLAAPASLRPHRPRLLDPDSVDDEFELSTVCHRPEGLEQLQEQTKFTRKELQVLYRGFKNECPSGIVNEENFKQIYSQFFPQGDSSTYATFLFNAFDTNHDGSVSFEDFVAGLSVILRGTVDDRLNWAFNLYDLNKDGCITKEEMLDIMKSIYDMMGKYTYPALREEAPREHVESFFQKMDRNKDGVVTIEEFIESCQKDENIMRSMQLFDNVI
Description: For this experiment, a recombinant CHO-K1 cell line stably expressing the human Kv4.3/KChIP2.2 potassium channel was used.
Protocol B: The cells were cultured in 94 mm culture dishes under the culturing conditions of 5% CO2 and 37° C. Subculturing was performed every 3-4 days, by removing the media and then rising the dish with 8 ml PBS (phosphate buffered saline). The PBS was removed and 1 ml Trypsin/EDTA was added to the cells. The cells were incubated about 2 min at 37° C. or 5 min at room temperature and then the dish was rapped to detach and singularize the cells. To inactivate the enzyme 9 ml of media was added and the solution was pipetted up and down to break up clumps of cells. Part of the suspension was then transferred to a new 94 mm dish and media was added to a final volume of 8 ml. If necessary the cells could be seeded onto 35 mm or 94 mm dishes (2 ml media per 35 mm dish and 8 ml media per 94 mm dish). The media was changed every 2-3 days. The media used was the solution for culturing the cells described above. For stable cells antibiotic G418, Hygromycin, Blasticidin, or Zeocin were not added.
The preparation of cells for electrophysiological experiments was performed as described in protocol C hereunder.
Protocol C: The transfected cells and stable cells were transferred from 35 mm cell culture dishes onto coverslips using cold PBS: The media was removed and 0.3 ml of PBS (4-10° C.) was added. The cells were incubated 5 min at room temperature. The dish was rapped to detach and singularize the cells and 1.7 ml media was added and the solution pipetted up and down to break up clumps of cells. Part of the cell suspension was then transferred to a 35 mm dish with coverslips and media. The transfected cells and stable cells could also be transferred from 35 mm cell culture dishes onto coverslips using trypsin: The media was removed and the dish rinsed with 3 ml PBS. The PBS was removed and 0.3 ml 1× Trypsin/EDTA was added and the cells incubated 5 min at room temperature. The dish was rapped to detach and singularize the cells and 1.7 ml media was added and the solution pipetted up and down to break up clumps of cells. Part of the cell suspension was then transferred to a 35 mm dish with coverslips and media.
10 mM stock solutions of the compounds were prepared in DMSO. Solutions of the compounds were prepared by dilution of stock solution in bath solution. If the required stock solution volume was theoretically below 1 μl, bath solutions with higher compound concentration were used for dilution. The maximal DMSO concentration during experiments was 0.1% (v/v).
For patch clamp experiments, the following solutions in demineralized water as vehicle were used (concentration in mM).
Bath (external) solution: 4 KCl, 135 NaCl, 2 CaCl2, 1 MgCl2, 10 D(+)-Glucose, 5 HEPES, pH 7.4 (NaOH).
Pipette (internal) solution: 130 KCl, 1 MgCl2, 10 EGTA, 5 Na2ATP, 5 HEPES, pH 7.4 (KOH).
Experiments were performed using a patch clamp set-up.
Measurements were performed at room temperature (20-25° C.). […] Each cell acted as its own control. The effect of compounds on Kv4.3/KChIP2.2 mediated currents was investigated at one concentration ([…]) with two replicates each (c=1, n=2).
The test protocols are illustrated in FIG. 1 and Table 4. […] Each test protocol consisted of 4 segments.
Subsequently, 14 test pulses (series 1; FIG. 1b and Table 4b) were applied at 0.1 Hz under constant superfusion with bath solution. The protocol was initiated by a voltage jump to −100 mV (400 ms) to achieve full inactivation. Then the Kv4.3/KChIP2.2 channels were transferred to the open state by depolarization to +40 mV for 300 milliseconds (activation). Only cells generating current amplitudes between 1 nA and 50 nA were used for the experimental procedure. No or negligible rundown was observed.
Then, 36 test pulses (series 2) were applied at 0.1 Hz under constant superfusion with the compound dissolved in bath solution. […]

[2] = read-out: Kv4.3 charge in %: remaining current measured after application of the compound and relative to the blank
[3] = read-out: Kv4.3 peak in %: remaining peak height measured after application of the compound and relative to the blank

| Compound | melting point [°C] | other results |
| --- | --- | --- |
| O=C(Nc1ccc(N2CCOCC2)cc1)c1cc2cc(Cl)ccc2o1 [Compound 99] | 223.8 to 225.6 | – |
| Cc1c(C(=O)NCc2ccc(OC(F)(F)F)cc2)sc2ccc(Cl)cc12 [Compound 117] | 159.2 to 162.4 | – |
| N#Cc1ccc(CNC(=O)c2cc3cc(Cl)ccc3o2)cc1 [Compound 80, 5-chloro-benzofuran-2-carboxylic acid 4-cyano-benzylamide] | 226.6 to 230.4 | – |
| O=C(c1cc2cc(Cl)ccc2o1)N1CCCC1c1ccccc1 (centres unmarked) [Compound 103, (5-chloro-benzofuran-2-yl)-(2-phenyl-pyrrolidin-1-yl)-methanone] | 123.3 to 125.4 | – |
| O=C(N[C@H](C(=O)O)c1ccccc1)c1cc2cc(Cl)ccc2o1 [Compound 41, (S)-[(5-chloro-benzofuran-2-carbonyl)-amino]-phenyl-acetic acid] | 211.2 to 215.6 | – |
| O=C(NCc1ccc(Br)cc1)c1cc2cc(Cl)ccc2o1 [Compound 77, 5-chloro-benzofuran-2-carboxylic acid 4-bromo-benzylamide] | 192.3 to 193.8 | – |
| O=C(NCC1COc2ccccc2O1)c1cc2cc(Cl)ccc2o1 (centres unmarked) [Compound 113, 5-chloro-benzofuran-2-carboxylic acid (2,3-dihydro-benzo[1,4]dioxin-2-ylmethyl)-amide] | 121.1 to 124.3 | – |
| COc1ccc(CNC(=O)c2cn(Cc3ccccc3)c3ccccc23)c(OC)c1 | 118.8 to 120.4 | – |
| O=C(NCc1ccccc1OC(F)(F)F)c1cc2cc(Cl)ccc2o1 [Compound 87, 5-chloro-benzofuran-2-carboxylic acid 2-trifluoromethoxy-benzylamide] | 125.8 to 127.9 | – |
| O=C(NCc1ccncc1)c1cc2cc(Cl)ccc2o1 [Compound 81, 5-chloro-benzofuran-2-carboxylic acid (pyridin-4-ylmethyl)-amide] | 163.1 to 166.2 | – |
| CN(C)S(=O)(=O)c1ccc(CNC(=O)c2cc3cc(Cl)ccc3o2)cc1 [Compound 67, 5-chloro-benzofuran-2-carboxylic acid 4-dimethylsulfamoyl-benzylamide] | 163.9 to 166.6 | – |
| COc1ccc(CC(=O)c2cc3ccccc3o2)c(OC)c1 [Compound 23, 1-benzofuran-2-yl-2-(2,4-dimethoxy-phenyl)-ethanone] | – | remaining activity at 1 µM [1, 2]: 83%; remaining activity at 1 µM [1, 3]: 99% |
| CSc1ccccc1CNC(=O)c1cc2cc(Cl)ccc2o1 [Compound 60, 5-chloro-benzofuran-2-carboxylic acid 2-methylsulfanyl-benzylamide] | 174.7 to 177.2 | – |
| Cc1ccc(C2CCN(C(=O)c3cc4cc(Cl)ccc4o3)CC2)cc1 [Compound 98, (5-chloro-benzofuran-2-yl)-(4-p-tolyl-piperidin-1-yl)-methanone] | – | remaining activity at 1 µM [1, 2]: 80%; remaining activity at 1 µM [1, 3]: 97% |
| O=C(NCc1cccc(OC(F)(F)F)c1)c1cc2cc(Cl)ccc2o1 [Compound 88, 5-chloro-benzofuran-2-carboxylic acid 3-trifluoromethoxy-benzylamide] | 133.5 to 137.9 | – |
| COc1ccc(CNC(=O)c2cc3ccccc3o2)c(OC)c1 [Compound 12, benzofuran-2-carboxylic acid 2,4-dimethoxy-benzylamide] | – | remaining activity at 1 µM [1, 2]: 89%; remaining activity at 1 µM [1, 3]: 97% |
| O=C(NCc1ccccc1)c1cc2cc(Cl)ccc2o1 [Compound 47, 5-chloro-benzofuran-2-carboxylic benzylamide] | – | remaining activity at 1 µM [1, 2]: 87%; remaining activity at 1 µM [1, 3]: 95% |
| COc1ccccc1C1CCN(C(=O)c2cc3cc(Cl)ccc3o2)CC1 [Compound 95, (5-chloro-benzofuran-2-yl)-[4-(2-methoxy-phenyl)-piperidin-1-yl]-methanone] | 146.1 to 147.4 | – |
| O=C(NCc1ccccc1-c1ccccc1)c1cc2cc(Cl)ccc2o1 [Compound 72, 5-chloro-benzofuran-2-carboxylic acid (biphenyl-2-ylmethyl)-amide] | 129.8 to 132.8 | – |
| CC(NC(=O)c1cc2cc(Cl)ccc2o1)c1ccccc1 (centres unmarked) [Compound 57, 5-chloro-benzofuran-2-carboxylic acid (1-phenyl-ethyl)-amide] | 136.3 to 138.2 | – |
| CC[C@H](NC(=O)c1cc2cc(Cl)ccc2o1)c1ccccc1 [Compound 59, 5-chloro-benzofuran-2-carboxylic acid ((S)-1-phenyl-propyl)-amide] | 110.1 to 111.3 | – |
| CN(C)C(=O)c1cccc(CNC(=O)c2cc3cc(Cl)ccc3o2)c1 [Compound 66, 5-chloro-benzofuran-2-carboxylic acid 3-dimethylcarbamoyl-benzylamide] | 105.1 to 109.4 | – |
| CS(=O)(=O)c1ccc(CNC(=O)c2cc3cc(Cl)ccc3o2)cc1 [Compound 79, 5-chloro-benzofuran-2-carboxylic acid 4-methanesulfonyl-benzylamide] | 187.6 to 189.1 | – |
| COC(=O)[C@@H](NC(=O)c1cc2cc(Cl)ccc2o1)c1ccccc1 [Compound 85, (S)[(5-chloro-benzofuran-2-carbonyl)-amino]-phenyl-acetic acid methyl ester] | 76.5 to 79.1 | – |
| Cc1c(C(=O)N2CCCCC2Cc2ccccc2)oc2ccc(Cl)cc12 (centres unmarked) [Compound 106, (2-benzyl-piperidin-1-yl)-(5-chloro-3-methyl-benzofuran-2-yl)-methanone] | – | remaining activity at 1 µM [1, 2]: 59%; remaining activity at 1 µM [1, 3]: 87% |
| O=C(c1ccc(Cl)cc1)C1CCN(C(=O)c2cc3cc(Cl)ccc3o2)CC1 [Compound 7, (5-chloro-benzofuran-2-yl)-[4-(4-chloro-benzoyl)-piperidin-1-yl]-methanone] | – | pIC50 [1]: 6.05 |
| Cc1ccc2[nH]cc(CCNC(=O)c3cc4cc(Cl)ccc4o3)c2c1 [Compound 3, 5-chloro-benzofuran-2-carboxylic acid [2-(5-methyl-1H-indole-3-yl)-ethyl]-amide] | – | pIC50 [1]: 5.88 |
